Assay results as given in ChEMBL document CHEMBL1201862, “PubChem BioAssay data set” (2004).
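48-hour exposure; five concentrations; linearly interpolated endpoints. Abbreviation: GI50, concentration required for 50% inhibition of growth.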 Calls of active or inactive are those of the source. No stated cut-off is given here; in the data, active = GI50 up to about 1.1 µM and inactive = higher.

Key:
Assay in all cases: NCI anticancer screen, dose series, 48 h
SK-OV-3 = system: SK-OV-3
NCI-H23 = system: NCI-H23
LOX IMVI = system: LOX IMVI
MDA-N = system: MDA-N
MCF7 = system: MCF7
HCT-15 = system: HCT-15
HOP-62 = system: HOP-62
TK-10 = system: TK-10
SNB-75 = system: SNB-75
SN12C = system: SN12C
A498 = system: A498
T47D = system: T47D
NCI-H522 = system: NCI-H522
NCI-H460 = system: NCI-H460
RXF 393 = system: RXF 393
IGROV-1 = system: IGROV-1
UO-31 = system: UO-31
SR = system: SR
COLO 205 = system: COLO 205
RPMI-8226 = system: RPMI-8226

| SMILES | GI50 (SK-OV-3) | GI50 (NCI-H23) | GI50 (LOX IMVI) | GI50 (MDA-N) | GI50 (MCF7) | GI50 (HCT-15) [µM] | GI50 (HOP-62) | GI50 (TK-10) | GI50 (SNB-75) | GI50 (SN12C) | GI50 (A498) | GI50 (T47D) | GI50 (NCI-H522) | GI50 (NCI-H460) | GI50 (RXF 393) | GI50 (IGROV-1) | GI50 (UO-31) | GI50 (SR) | GI50 (COLO 205) | GI50 (RPMI-8226) |
| --- | --- | --- | --- | --- | --- | --- | --- | --- | --- | --- | --- | --- | --- | --- | --- | --- | --- | --- | --- | --- |
| O=C(O)CCC(=O)OC1N=C(c2ccccc2Cl)c2cc([N+](=O)[O-])ccc2NC1=O (configuration not stated) | > 100 µM (inactive) | > 100 µM (inactive) | 85.7 µM (inactive) | > 100 µM (inactive) | 33 µM (inactive) | 36.7 | 70.6 µM (inactive) | 86.7 µM (inactive) | 38.1 µM (inactive) | 46.5 µM (inactive) | > 100 µM (inactive) | 81.3 µM (inactive) | 55.1 µM (inactive) | > 100 µM (inactive) | 47.3 µM (inactive) | 95.9 µM (inactive) | 44.6 µM (inactive) |  |  |  |
| CC(=O)OC12OC(C)(C3C(=O)N(c4ccccc4)C(=O)C31)N(c1ccccc1)C2=O (configuration not stated) | > 100 µM (inactive) | > 100 µM (inactive) | > 100 µM (inactive) | > 100 µM (inactive) | > 100 µM (inactive) | > 100 | > 100 µM (inactive) | > 100 µM (inactive) | > 100 µM (inactive) | > 100 µM (inactive) |  | > 100 µM (inactive) | > 100 µM (inactive) | > 100 µM (inactive) | > 100 µM (inactive) | > 100 µM (inactive) | > 100 µM (inactive) | > 100 µM (inactive) | > 100 µM (inactive) |  |
| COc1c(C(=O)NCCN(CCNC(=O)c2cccc(-c3cccc(C(=O)N(C)C)c3OC)c2OC)CCNC(=O)c2cccc(-c3cccc(C(=O)N(C)C)c3OC)c2OC)cccc1-c1cccc(C(=O)N(C)C)c1OC | 48.1 µM (inactive) | 43.2 µM (inactive) | 18.1 µM (inactive) | 17.8 µM (inactive) | 18.8 µM (inactive) | > 100 | 97.7 µM (inactive) |  | 28.7 µM (inactive) | 24.4 µM (inactive) |  | 15.1 µM (inactive) | 21.6 µM (inactive) | 94.4 µM (inactive) | 26.5 µM (inactive) | 36.1 µM (inactive) | > 100 µM (inactive) | 26.6 µM (inactive) | 22.1 µM (inactive) | 25.9 µM (inactive) |
| CN(C)/C=C/C=C(/C=N/S(=O)(=O)C(F)(F)F)C1C=CN(S(=O)(=O)C(F)(F)F)C=C1 | 28.4 µM (inactive) | 23.3 µM (inactive) | 42.8 µM (inactive) | 36.7 µM (inactive) |  | 23.4 | 39.4 µM (inactive) | 36.6 µM (inactive) | 16.6 µM (inactive) | 40.6 µM (inactive) | 41 µM (inactive) | 23.4 µM (inactive) | 21.6 µM (inactive) | 24.3 µM (inactive) |  | 54.3 µM (inactive) | 29.1 µM (inactive) | 30.1 µM (inactive) | 17.7 µM (inactive) | 38.3 µM (inactive) |
| Cn1ccnc1SC(F)(F)c1nc2ccccc2o1 | > 100 µM (inactive) | > 100 µM (inactive) |  | > 100 µM (inactive) | > 100 µM (inactive) | > 100 | > 100 µM (inactive) | > 100 µM (inactive) | 0.043 µM (active) | > 100 µM (inactive) | > 100 µM (inactive) | > 100 µM (inactive) | > 100 µM (inactive) | > 100 µM (inactive) | > 100 µM (inactive) | > 100 µM (inactive) | > 100 µM (inactive) |  | > 100 µM (inactive) | > 100 µM (inactive) |
| Cc1ccc(C(=O)Nc2ccc(CP(=O)(O)O)cc2)cc1NC(=O)c1cccc(NC(=O)Nc2cccc(C(=O)Nc3cc(C(=O)Nc4ccc(CP(=O)(O)O)cc4)ccc3C)c2)c1 | > 100 µM (inactive) | > 100 µM (inactive) | > 100 µM (inactive) | > 100 µM (inactive) | > 100 µM (inactive) | > 100 | > 100 µM (inactive) | > 100 µM (inactive) | > 100 µM (inactive) | > 100 µM (inactive) | > 100 µM (inactive) | > 100 µM (inactive) | > 100 µM (inactive) | > 100 µM (inactive) | > 100 µM (inactive) | > 100 µM (inactive) | > 100 µM (inactive) |  | > 100 µM (inactive) | > 100 µM (inactive) |
| O=C(O)CNc1ccc(C(=O)O)cc1 | > 100 µM (inactive) | > 100 µM (inactive) | > 100 µM (inactive) | > 100 µM (inactive) | > 100 µM (inactive) | > 100 | > 100 µM (inactive) | > 100 µM (inactive) | > 100 µM (inactive) | > 100 µM (inactive) | > 100 µM (inactive) | > 100 µM (inactive) | > 100 µM (inactive) | > 100 µM (inactive) | > 100 µM (inactive) | > 100 µM (inactive) | > 100 µM (inactive) |  | > 100 µM (inactive) | > 100 µM (inactive) |
